Laboratory results taken from patent US10670605B2, “Cysteine reactive probes and uses thereof” (The Scripps Research Institute, priority 2015, dated 2020).
Blank lines part the entries; values can stand above or below the compound they belong to.

Columns and labels:
Experiment in all cases: Competitive isoTOP-ABPP in situ (fragment-treated cells)
Type in all cases: cell-based
[1] = target: T1, cysteines in MDA-MB-231 and Ramos cells (Homo sapiens, UniProt Q9HA64)
T1 sequence (Q9HA64 1-309): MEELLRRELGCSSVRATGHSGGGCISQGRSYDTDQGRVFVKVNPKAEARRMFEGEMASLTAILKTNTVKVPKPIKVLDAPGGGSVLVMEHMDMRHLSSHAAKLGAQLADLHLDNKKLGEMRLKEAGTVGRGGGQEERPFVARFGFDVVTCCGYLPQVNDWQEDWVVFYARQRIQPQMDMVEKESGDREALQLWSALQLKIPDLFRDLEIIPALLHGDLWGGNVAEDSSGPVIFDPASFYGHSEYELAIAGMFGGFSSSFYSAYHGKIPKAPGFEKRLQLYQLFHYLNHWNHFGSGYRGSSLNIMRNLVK

[2] = target: T2, cysteines in MDA-MB-231 and Ramos cells (Homo sapiens, UniProt P05091)
T2 sequence (P05091 18-517): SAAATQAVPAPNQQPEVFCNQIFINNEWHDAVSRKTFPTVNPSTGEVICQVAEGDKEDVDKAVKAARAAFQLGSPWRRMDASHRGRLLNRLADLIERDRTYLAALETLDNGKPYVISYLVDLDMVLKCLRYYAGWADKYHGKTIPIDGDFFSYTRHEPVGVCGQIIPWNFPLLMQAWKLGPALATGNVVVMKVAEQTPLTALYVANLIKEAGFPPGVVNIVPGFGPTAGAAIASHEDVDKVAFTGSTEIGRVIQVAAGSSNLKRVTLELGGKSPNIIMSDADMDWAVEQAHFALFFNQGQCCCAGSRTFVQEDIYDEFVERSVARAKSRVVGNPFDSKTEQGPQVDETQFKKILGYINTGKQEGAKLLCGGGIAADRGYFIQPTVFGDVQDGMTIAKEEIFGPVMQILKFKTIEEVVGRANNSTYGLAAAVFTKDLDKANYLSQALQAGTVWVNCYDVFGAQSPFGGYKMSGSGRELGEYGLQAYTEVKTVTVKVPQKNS

[3] = target: T3, cysteines in MDA-MB-231 and Ramos cells (Homo sapiens, UniProt P10398); conditions: 200 μM, insitu
T3 sequence (P10398 1-606): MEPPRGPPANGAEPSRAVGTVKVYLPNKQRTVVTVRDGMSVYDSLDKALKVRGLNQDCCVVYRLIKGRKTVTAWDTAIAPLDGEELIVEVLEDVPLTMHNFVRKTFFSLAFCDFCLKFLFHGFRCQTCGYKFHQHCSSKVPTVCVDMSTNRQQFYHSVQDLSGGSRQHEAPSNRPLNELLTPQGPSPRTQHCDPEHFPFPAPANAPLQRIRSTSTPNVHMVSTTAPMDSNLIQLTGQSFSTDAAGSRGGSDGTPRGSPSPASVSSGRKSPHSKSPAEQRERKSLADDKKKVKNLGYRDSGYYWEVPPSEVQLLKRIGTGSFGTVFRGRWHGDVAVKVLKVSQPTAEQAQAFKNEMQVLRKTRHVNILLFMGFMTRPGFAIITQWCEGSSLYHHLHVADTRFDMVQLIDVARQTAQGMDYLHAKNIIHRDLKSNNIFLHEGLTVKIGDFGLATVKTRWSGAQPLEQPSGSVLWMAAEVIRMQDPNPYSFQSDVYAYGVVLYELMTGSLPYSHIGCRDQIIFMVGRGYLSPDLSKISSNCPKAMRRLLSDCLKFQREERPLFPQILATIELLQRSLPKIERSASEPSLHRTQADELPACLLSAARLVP

[4] = target: T4, cysteines in MDA-MB-231 and Ramos cells (Homo sapiens, UniProt Q9NUI1); conditions: for isoTOP-ABPP ratio Q9NUI1_C22: 200 μM, insitu, 231
T4 sequence (Q9NUI1 1-292): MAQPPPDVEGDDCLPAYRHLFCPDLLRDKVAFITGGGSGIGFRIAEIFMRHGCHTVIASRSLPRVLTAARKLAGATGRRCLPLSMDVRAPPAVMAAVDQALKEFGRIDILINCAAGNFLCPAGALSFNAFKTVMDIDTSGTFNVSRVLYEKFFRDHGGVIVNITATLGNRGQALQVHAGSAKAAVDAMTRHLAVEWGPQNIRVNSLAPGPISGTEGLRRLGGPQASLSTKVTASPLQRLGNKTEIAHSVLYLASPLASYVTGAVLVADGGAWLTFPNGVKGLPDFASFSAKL

[5] = target: T5, cysteines in MDA-MB-231 and Ramos cells (Homo sapiens, UniProt Q8TD19); conditions: 200 μM, insitu
T5 sequence (Q8TD19 1-979): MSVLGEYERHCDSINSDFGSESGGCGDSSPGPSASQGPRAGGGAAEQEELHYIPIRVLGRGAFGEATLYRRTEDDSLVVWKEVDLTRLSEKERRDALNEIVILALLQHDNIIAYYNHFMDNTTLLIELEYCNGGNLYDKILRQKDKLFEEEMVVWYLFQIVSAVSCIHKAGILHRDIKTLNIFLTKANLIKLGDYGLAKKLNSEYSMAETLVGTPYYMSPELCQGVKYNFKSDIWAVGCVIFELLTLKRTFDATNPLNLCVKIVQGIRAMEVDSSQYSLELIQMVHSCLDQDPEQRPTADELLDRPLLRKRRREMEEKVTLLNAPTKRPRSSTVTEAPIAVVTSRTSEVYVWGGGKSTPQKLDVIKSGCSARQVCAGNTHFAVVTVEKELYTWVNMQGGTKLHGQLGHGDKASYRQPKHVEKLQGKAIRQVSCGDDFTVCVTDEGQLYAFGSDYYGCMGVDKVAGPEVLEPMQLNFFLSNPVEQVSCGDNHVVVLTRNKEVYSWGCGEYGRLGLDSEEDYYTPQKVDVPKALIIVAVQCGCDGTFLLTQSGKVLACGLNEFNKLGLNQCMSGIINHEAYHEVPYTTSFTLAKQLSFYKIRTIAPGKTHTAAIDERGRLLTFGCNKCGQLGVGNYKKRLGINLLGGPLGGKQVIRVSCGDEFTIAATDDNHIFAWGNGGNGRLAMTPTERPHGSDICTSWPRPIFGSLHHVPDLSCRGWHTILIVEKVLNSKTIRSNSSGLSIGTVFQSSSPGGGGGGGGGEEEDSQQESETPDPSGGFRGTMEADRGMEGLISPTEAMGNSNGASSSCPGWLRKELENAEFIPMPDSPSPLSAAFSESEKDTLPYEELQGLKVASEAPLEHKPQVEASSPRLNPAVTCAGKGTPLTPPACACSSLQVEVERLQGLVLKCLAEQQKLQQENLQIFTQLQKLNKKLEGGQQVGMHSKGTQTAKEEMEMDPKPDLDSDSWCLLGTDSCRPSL

[6] = target: cysteines in MDA-MB-231 and Ramos cells (Homo sapiens, UniProt Q8N999); conditions: 200 μM, insitu, 231
Sequence of cysteines in MDA-MB-231 and Ramos cells (Homo sapiens, UniProt Q8N999) (Q8N999 whole entry): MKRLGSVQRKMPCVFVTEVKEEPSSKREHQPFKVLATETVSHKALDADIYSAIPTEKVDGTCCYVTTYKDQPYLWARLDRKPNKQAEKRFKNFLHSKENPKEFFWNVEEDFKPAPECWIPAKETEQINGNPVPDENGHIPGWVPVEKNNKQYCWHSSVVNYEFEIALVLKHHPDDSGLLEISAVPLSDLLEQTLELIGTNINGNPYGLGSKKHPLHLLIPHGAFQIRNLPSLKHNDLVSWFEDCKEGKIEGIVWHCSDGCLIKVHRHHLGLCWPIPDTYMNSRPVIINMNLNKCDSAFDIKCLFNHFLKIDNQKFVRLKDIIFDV

- isoTOP-ABPP reactivity Q9HA64_C24 FN3KRP ([1]; 200 μM, insitu, 231): 6.3
Structure (SMILES): COc1ccc2c(c1)CCCN2C(=O)CCl [compound 2]

- isoTOP-ABPP reactivity P05091_C319 ALDH2 ([2]; 100 μM in situ 231): 20.0
- isoTOP-ABPP reactivity Q9HA64_C24 FN3KRP ([1]; 100 μM in situ 231): 20.0
Structure (SMILES): COc1ccc(C2CC(c3cccs3)=NN2C(=O)CCl)cc1 (stereo not shown) [compound 4]

- isoTOP-ABPP reactivity Q9HA64_C24 FN3KRP ([1]; 200 μM, insitu, 231): 20.0
Structure (SMILES): O=C(CCl)N1CCC(Cc2ccccc2)CC1 [compound 9]

- isoTOP-ABPP ratio, cysteine P10398_C597 [3]; 231: 1.4
Structure (SMILES): O=C(CCl)N1CCN(S(=O)(=O)c2ccccc2F)CC1 [compound 10]

- isoTOP-ABPP ratio, cysteine Q9NUI1_C22 ([4]; 100 μM in situ 231): 2.1
Structure (SMILES): Cn1cc(S(=O)(=O)N2CCOCC2)cc1C(=O)NC(=O)CCl [compound 11]

- isoTOP-ABPP ratio, cysteine P05091_C319 ([2]; 200 μM, insitu, 231): 20.0
Structure (SMILES): O=C(CCl)NC(=O)NC12CC3CC(CC(C3)C1)C2 [compound 12]

- isoTOP-ABPP ratio, cysteine P10398_C597 ([3]; ramos): 1.0
Structure (SMILES): O=C(CCl)NCCc1c[nH]c2ccccc12 [compound 13]
- isoTOP-ABPP ratio, cysteine Q8TD19_C623 ([5]; ramos): 20.0

- isoTOP-ABPP ratio, cysteine P10398_C597 [3]; 231: 0.7
- isoTOP-ABPP ratio, cysteine Q9HA64_C24 ([1]; 200 μM, insitu, 231): 0.6
Structure (SMILES): O=C(CCl)NC12CC3CC(CC(C3)C1)C2 [compound 21]
- isoTOP-ABPP ratio, cysteine Q8TD19_C623 [5]; 231: 0.8

- isoTOP-ABPP ratio Q8N999_C302 [6]: 0.6
Structure (SMILES): COc1ccccc1OCCNC(=O)CCl [compound 28]

- isoTOP-ABPP ratio P05091_C319 ([2]; 200 μM, insitu, ramos): 10.5
- isoTOP-ABPP ratio P10398_C597 ([3]; ramos): 1.2
Structure (SMILES): O=C(CCl)N1CCN(CC(=O)N2CCOCC2)CC1 [compound 29]

- isoTOP-ABPP ratio Q9NUI1_C22 [4]: 0.7
Structure (SMILES): C=CC(=O)N(Cc1cccnc1)c1cc(C(F)(F)F)cc(C(F)(F)F)c1 [compound 31]
- isoTOP-ABPP ratio Q8TD19_C623 [5]; 231: 0.7
- isoTOP-ABPP ratio Q8TD19_C623 ([5]; ramos): 1.4

- isoTOP-ABPP ratio Q9HA64_C24 ([1]; 200 μM, insitu, 231): 1.7
Structure (SMILES): C=CC(=O)Nc1cc(F)c(N2CCN(C(=O)OC(C)(C)C)CC2)c(F)c1 [compound 38]

- isoTOP-ABPP ratio P05091_C319 ([2]; 200 μM, insitu, 231): 0.9
- isoTOP-ABPP ratio Q8N999_C302 [6]: 0.3
Structure (SMILES): Cc1ccc(C=C(C#N)C(=O)NCCN2CCOCC2)cc1 [compound 41]
- isoTOP-ABPP ratio Q8TD19_C623 [5]; 231: 0.6

- isoTOP-ABPP ratio P05091_C319 ([2]; 200 μM, insitu, 231): 20.0
- isoTOP-ABPP ratio Q8N999_C302 [6]: 20.0
- isoTOP-ABPP ratio Q9NUI1_C22 [4]: 17.0
Structure (SMILES): CC1CCc2ccccc2N1C(=O)CCl (stereo not shown) [compound 45]
